This is an account of results in patent US8530183B2, “Zinc sensors for cellular imaging” (The Board of Regents of the University of Texas System, priority 2010, dated 2013).

The subject of assay [1] is MIN6 cells. The experiment in a line: Epifluorescence ZIMIR imaging of KCl-stimulated insulin/Zn2+ release. It is filed as cell-based, mouse. The conditions noted are these: KCl 40 mM. How it is done:
FIGS. 6A-E. ZIMIR imaging of insulin/Zn^2+ release. (FIGS. 6A-E) KCl stimulated insulin/Zn^2+ release in MIN6 cells. Example images of MIN6 cells (FIG. 6A, DIC/Normasky) before (FIG. 6B) and after KCl (40 mM, C) or Zn^2+ addition (1 μM, D). Time courses of ZIMIR signal changes (F/F0) in two example regions of interest (ROI, indicated in D by dashed lines) along the plasma membrane.
Cell culture and ZIMIR imaging by wide field fluorescence microscopy. Details of cell culture are described below. For cell imaging, we cultured cells in 35 mm petri dishes with glass-bottoms (MatTek, Ashland, Mass.). […] To image insulin/Zn^2+ secretion, we routinely included 10 μM of EDTA in SAB to chelate the residual Zn^2+ and to reduce the baseline fluorescence. […]
Membrane ZIMIR fluorescence intensity was measured by drawing regions of interest (ROIs) along the plasma membrane, and its time course was normalized against its baseline value after background subtraction, i.e., (F-Fbkg)/(F0-Fbkg), where Fbkg is the average background fluorescence intensity of a nearby area containing no cells. […] Wide field fluorescence microscopy was carried out on inverted fluorescence microscopes as described (Guo et al., 2008).
ZIMIR imaging by wide field fluorescence microscopy. […]

Assay [2] concerns INS-1 cells. The experiment in a line: Response of membrane-anchored ZIMIR to extracellular Zn2+ and decay upon Zn2+ washout. It is filed as cell-based, rat. Here is the method: FIGS. 5A-B. Membrane anchored ZIMIR reports changes of [Zn^2+]e. (FIG. 5A) Example fluorescence images (Excitation 488±7.5 nm, emission 530±20 nm) of INS-1 cells labeled with ZIMIR at different [Zn^2+]e. (FIG. 5B) Quantification of the average ZIMIR fluorescence intensity along the plasma membrane (IZIMIR(PM)).
(FIG. 7A) Time courses of IZIMIR(PM) decay after washing INS-1 cells (initially bathed in FIBS containing 1 μM Zn^2+) with HBS containing EDTA (10 μM) and DPAS (0-8 μM). (FIG. 7B) ZIMIR imaging of insulin/Zn^2+ release of MIN6 cells bathed in SAB containing EDTA (10 μM) and DPAS (4 μM). Time courses of IZIMIR(PM) fluctuation of four separate regions of interest (ROI 1-4) and example ZIMIR images at different time points were shown (a-e; arrow heads highlighting local ZIMIR increases in separate ROIs at different time).
To characterize the response of membrane anchored ZIMIR to changes of extracellular Zn^2+ concentration ([Zn^2+]), the inventors varied [Zn^2+]e from low nanomolar to micromolar, using Zn^2-1 buffers containing nitrilotriacetic acid (for [Zn^2+]e<100 nM) (Hirano et al., 2000) or histidine (for [Zn^2+]e. 100 nM) (Hauser and Tsien, 2007). After recording fluorescence images at different [Zn^2+]e levels, the inventors washed cells with a nominally Zn^2+ free SAB containing 0.2 mM DPAS and followed the decay of IZIMIR(PM).
Upon membrane depolarization, ZIMIR signal increased immediately and reached a plateau before it gradually declined (FIGS. 6E-F). Unexpectedly, however, in some occasions, ZIMIR signal remained elevated even after the inventors lowered KCl concentration to the resting level (5 mM) (FIG. 9). […] In INS-1 beta cells labeled with ZIMIR, after recording ZIMIR fluorescence in solutions containing ˜1 μM of Zn2+, the inventors perifused cells with a nominally Zn^2+-free solution containing only EDTA (10 μM), or with both EDTA (10 μM) and different concentrations of DPAS.

Molecules are shown by their SMILES.

Take `CCCCCCCCCCCCN(CC(=O)O)Cc1c2oc3c(CN(CCCCCCCCCCCC)CC(=O)O)c(O)ccc3c(-c3cc(NCCN(CCc4ccccn4)Cc4ccccn4)ccc3C(=O)O)c-2ccc1=O` [ZIMIR]: in assay [1], the “ZIMIR fluorescence change upon KCl stimulation” value was “robust enhancement in ZIMIR fluorescence”. Also, in assay [2] (INS-1 cells, EDTA 10 μM only, absence of DPAS), the “decaying half lifetime of membrane ZIMIR signal upon Zn^2+ washout” value amounted to 2.723 min. In assay [2] ([Zn^2+]e varied from nanomolar to micromolar), the “ZIMIR fluorescence along the plasma membrane (IZIMIR(PM)) versus [Zn^2+]e” value is “stepwise increase with incremental level of [Zn^2+]e”.
